Results from patent publication US12337033B2, “Encapsulated glycolipid antigens for treatment of neoplastic diseases” (EnGeneIC Molecular Delivery Pty Ltd, priority 2019, dated 2025).

Experiments:
JAWSII cells = assay: αGC surface presentation through CD1d on JAWSII cells (anti-alpha GalCer:mCD1d staining, flow cytometry); assay type: cell-based, mouse; conditions: 8h-48h post-treatment, compared to minicells alone and untreated, free αGC 1000 ng/ml
Method: Cells used: Mouse immature […] JAWSII (ATCC® CRL-11904™).
Preparation Perfecta3D 96-Well Hanging Drop Plate: The upper and lower side tray reservoirs of the 3D hanging drop plates were filled with melted 1% agarose using a P1000 pipette (1 g agarose dissolve in 100 ml of water, dissolved in microwave and allowed to cool to ˜50° C.). The plates were allowed to dry and settle at room temperature for at least 30 min. The outside wells of the hanging drop plate were then filled with 50 μl of sterile cell culture media (without cells)/well.
Treatment of JAWSII spheroids with EDVαGC: JAWSII cells were treated with 1000 ng/ml aGC (positive control); empty minicells and minicellsαGC compared to untreated cells and collected at 8h, 16h, 24h and 48h post-treatment (FIGS. 8A-8D).
Dissociation of JAWSII cells into single-cell suspensions: JAWSII cells were grown as semi-suspension cultures in T25 or T75 flasks. The culture media was carefully collected into a sterile 50 ml tube by pipetting using a pipette-aid and the culture surface of the flask was washed 2× with 5 ml of sterile PBS, and collected in the same sterile 50 ml tube after each wash. […] To determine the cell number, 10 μl of the cell suspension was mixed with 10 μl of trypan blue solution and analyzed using an EVE automated cell counter. […]

[1] = system: many different tumor cell lines; assay: Cytotoxicity assays against tumor cell lines; assay type: cell-based

Row | Compound | staining with anti-GalCer:mCD1d (α-GC presentation on the cell surface by CD1d) (JAWSII cells) | drug resistance in tumor cell lines ([1]; a number of different tumor cell lines) | potency compared with a range of conventional chemotherapeutics ([1]; cytotoxicity assays, many different tumor cell lines)
1 | CCCCCCCCCCCCCCCCCCCCCCCCCC(=O)N[C@@H](CO[C@H]1O[C@H](CO)[C@H](O)[C@H](O)[C@H]1O)[C@H](O)[C@H](O)CCCCCCCCCCCCCC [free α-GC, α-galactosylceramide] | clear shift |  | 
2 | COc1cccc2c1C(=O)c1c(O)c3c(c(O)c1C2=O)C[C@@](O)(C(=O)CO)C[C@@H]3OC1CC2C(OC3C(OC)OCCN23)C(C)O1 (stereo partly drawn) [PNU159682, 3′-deamino-3″,4′-anhydro-[2″(S)-methoxy-3″(R)-oxy-4″-morpholinyl] doxorubicin] |  | appears to overcome drug resistance | much more potent
